This note sets out measurements from patent US6355673B1, “Substituted diaminocarboxylic acids” (Aventis Pharma Deutschland GmbH, priority 1997, dated 2002).

As usually defined, the IC50 is the concentration needed to halve the response being measured. A low value points to higher potency.

The target in test [1] is T1, stromelysin (MMP-3) (Homo sapiens, UniProt P08254).
T1 construct: enzymatic activity of the catalytic domains of human stromelysin and of neutrophil collagenase; made in house
Put plainly: Enzyme inhibition of the catalytic domain of human stromelysin (fluorogenic substrate). The format is biochemical. To be noted: 15 min preincubation, pH=6.5, fluorescence 328 nm (ex)/393 nm (em). As to the method:
(§1) Preparation and determination of the enzymatic activity of the catalytic domains of human stromelysin and of neutrophil collagenase.
(§2) The enzymes stromelysin (MMP-3) and neutrophil collagenase (MMP-8) were prepared according to Ye et al. (Biochemistry; 31 (1992) pages 11231-11235). To measure the enzyme activity or the enzyme inhibitor action, 70 μl of buffer solution and 10 μl of enzyme solution are incubated for 15 min with 10 μl of a 10% strength (v/v) aqueous dimethyl sulfoxide solution, which optionally contains the enzyme inhibitor. After addition of 10 μl of a 10% strength (v/v) aqueous dimethyl sulfoxide solution which contains 1 mil/L of the substrates, the enzyme reaction is monitored by fluorescence spectroscopy (328 nm (ex)/393 nm(em)). The enzyme activity is shown as the extinction increase/min. The IC50 values listed in Table 2 are determined as those inhibitor concentrations which in each case lead to a 50% inhibition of the enzyme.
(§3) The buffer solution contains 0.05% Brij (Sigma, Deisenhofen, Germany) and also 0.1 mol/L tris/HCl, 0.1 mol/L NaCl, 0.01 mol/L CaCl2 and 0.1 mol/L piperazine-N,N′-bis(2-ethanesulfonic acid) (pH=6.5). The enzyme solution contains 5 μg/ml of one of the enzyme domains prepared according to Ye et al. The substrate solution contains 1 mil/L of the fluorogenic substrate (7-methoxycoumarin-4-yl)acetyl-Pro-Leu-Gly-Leu-3-(2′,4′-dinitrophenyl)-L-2,3-diaminopropionyl-Ala-Arg-NH2 (Bachem, Heidelberg, Germany).

Test [2] deals with T2, neutrophil collagenase (MMP-8) (Homo sapiens, UniProt P22894).
T2 construct: enzymatic activity of the catalytic domains of human stromelysin and of neutrophil collagenase; made in house
Kind of test: Enzyme inhibition of the catalytic domain of neutrophil collagenase (fluorogenic substrate). To be noted: 15 min preincubation, pH=6.5, fluorescence 328 nm (ex)/393 nm (em). The format is biochemical. As to the method: as §1, §2, §3

T1 sequence (P08254 100-272 limits assumed): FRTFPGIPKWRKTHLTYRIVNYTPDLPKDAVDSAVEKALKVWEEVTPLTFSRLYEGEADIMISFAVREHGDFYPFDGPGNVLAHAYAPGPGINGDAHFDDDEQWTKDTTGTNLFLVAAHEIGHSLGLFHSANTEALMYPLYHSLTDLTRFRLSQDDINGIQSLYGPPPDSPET
T2 sequence (P22894 100-262 limits assumed): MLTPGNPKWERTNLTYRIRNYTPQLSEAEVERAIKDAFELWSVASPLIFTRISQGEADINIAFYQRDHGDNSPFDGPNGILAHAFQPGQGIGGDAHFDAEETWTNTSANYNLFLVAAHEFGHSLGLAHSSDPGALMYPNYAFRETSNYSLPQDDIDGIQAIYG

As for `Cc1ccc(S(=O)(=O)NC(=N)NCCC[C@@H](NS(=O)(=O)c2ccc(-c3ccc(Cl)cc3)cc2)C(=O)O)cc1` [Example 22], the IC50 in test [1] and in test [2] was 80 nM in each case.

Regarding `NC(=O)NCCCC[C@@H](NS(=O)(=O)c1ccc(-c2ccc(Cl)cc2)cc1)C(=O)O` [Example 23], the IC50 in test [1] was 40 nM; in test [2], 5 nM.

For the compound `NC(=O)NCCCC[C@H](NS(=O)(=O)c1ccc(-c2ccc(Cl)cc2)cc1)C(=O)O` [Example 24], the IC50 came out at 30 nM in test [1] and 5 nM in test [2].

With `N/C(=N\[N+](=O)[O-])NCCC[C@H](NS(=O)(=O)c1ccc(-c2ccc(Cl)cc2)cc1)C(=O)O` [Example 25], the IC50 in test [1] is 60 nM; in test [2], 10 nM.

As to `N/C(=N\[N+](=O)[O-])NCCC[C@@H](NS(=O)(=O)c1ccc(-c2ccc(Cl)cc2)cc1)C(=O)O` [Example 26], the figures for the IC50 in test [1] and in test [2] were 60 nM and 7 nM, respectively.

As to `O=C(NCCC[C@@H](NS(=O)(=O)c1ccc(-c2ccc(Cl)cc2)cc1)C(=O)O)C1CC1` [Example 41], the IC50 came to 5 nM in test [1] and 2 nM in test [2].

For the compound `O=C(NCCC[C@@H](NS(=O)(=O)c1ccc(-c2ccc(Cl)cc2)cc1)C(=O)O)Nc1ccccc1` [Example 42], the IC50 in test [1] was 10 nM; in test [2] it was 3 nM.

In the case of `CN(C)c1ccc(C(=O)NCCC[C@@H](NS(=O)(=O)c2ccc(-c3ccc(Cl)cc3)cc2)C(=O)O)cc1` [Example 43], the IC50 in test [1] is 40 nM; in test [2] it was 20 nM.

Consider `CC(=O)Oc1ccccc1C(=O)NCCC[C@H](NS(=O)(=O)c1ccc(-c2ccccc2)cc1)C(=O)O` [Example 44], for which the results for the IC50 in test [1] and in test [2] were 30 nM and 6 nM, respectively.

As for `O=C(NCCC[C@H](NS(=O)(=O)c1ccc(-c2ccccc2)cc1)C(=O)O)c1ccccc1O` [Example 45], the values for the IC50 in test [1] and in test [2] were 20 nM and 4 nM, respectively.

For the compound `CC(C)(C)CC(=O)NCCC[C@@H](NS(=O)(=O)c1ccc(-c2ccc(Cl)cc2)cc1)C(=O)O` [Example 46], the figures for the IC50 in test [1] and in test [2] were 10 nM and 3 nM, respectively.

Turning to `O=C(NCCC[C@@H](NS(=O)(=O)c1ccc(-c2ccc(Cl)cc2)cc1)C(=O)O)c1ccc(F)cc1` [Example 47], the IC50 in test [1] amounted to 10 nM; in test [2], 3 nM.

`O=C(NCCC[C@@H](NS(=O)(=O)c1ccc(-c2ccc(Cl)cc2)cc1)C(=O)O)c1ccc2c(c1)OCO2` [Example 48]: the values for the IC50 in test [1] and in test [2] were 20 nM and 7 nM, respectively.

On to `CC(C)(C)CC(=O)NCCC[C@H](NS(=O)(=O)c1ccc(-c2ccc(Cl)cc2)cc1)C(=O)O` [Example 49], for which the IC50 in test [1] worked out at 20 nM; in test [2], 3 nM.

As for `O=C(NCCC[C@H](NS(=O)(=O)c1ccc(-c2ccc(Cl)cc2)cc1)C(=O)O)c1ccccn1` [Example 50], the IC50 in test [1] was found to be 6 nM; in test [2], 2 nM.

`O=C(NCCC[C@H](NS(=O)(=O)c1ccc(-c2ccc(Cl)cc2)cc1)C(=O)O)c1cccnc1` [Example 51]: the IC50 in test [1] amounted to 20 nM; in test [2], 3 nM.

Regarding `COc1ccc(C(=O)NCCC[C@H](NS(=O)(=O)c2ccc(-c3ccc(Cl)cc3)cc2)C(=O)O)cc1OC` [Example 52], the IC50 came to 20 nM in test [1] and 10 nM in test [2].

Take `C[C@H](NC(=O)OC(C)(C)C)C(=O)NCCC[C@H](NS(=O)(=O)c1ccc(-c2ccc(Cl)cc2)cc1)C(=O)O` [Example 53]: the IC50 in test [1] stood at 30 nM; in test [2], 6 nM.

As for `O=C(CC(C(=O)O)c1ccccc1)NCCC[C@H](NS(=O)(=O)c1ccc(-c2ccc(Cl)cc2)cc1)C(=O)O` (some centres unmarked) [Example 55], the IC50 was 7 nM in test [1] and 3 nM in test [2].

On to `COc1ccc(S(=O)(=O)NCCC[C@H](NS(=O)(=O)c2ccc(-c3ccc(Cl)cc3)cc2)C(=O)O)cc1` [Example 56], for which the IC50 was determined as 10 nM in test [1] and 8 nM in test [2].

Turning to `CC(C)(C)C(=O)NCCC[C@H](NS(=O)(=O)c1ccc(-c2ccc(Cl)cc2)cc1)C(=O)O` [Example 57], the figures for the IC50 in test [1] and in test [2] were 40 nM and 8 nM, respectively.

As for `CN(C)c1ccc(-c2ccc(S(=O)(=O)N[C@@H](CCCNC(=O)OC(C)(C)C)C(=O)O)cc2)cc1` [Example 59], the values for the IC50 in test [1] and in test [2] were 5 nM and 1 nM, respectively.

For the compound `COc1ccc(S(=O)(=O)NCCC[C@H](NS(=O)(=O)c2ccc(-c3ccc(Cl)cc3)cc2)C(=O)O)cc1OC` [Example 60], the IC50 in test [1] and in test [2] was 10 nM each time.

For the compound `O=C(NCCC[C@H](NS(=O)(=O)c1ccc(-c2ccc(Cl)cc2)cc1)C(=O)O)C1CC1` [Example 62], the IC50 was determined as 5 nM in test [1] and 2 nM in test [2].

Turning to `O=C(O)[C@H](CCCN(C(=O)C1CC1)C(=O)C1CC1)NS(=O)(=O)c1ccc(-c2ccc(Cl)cc2)cc1` [Example 63], the IC50 stood at 10 nM in test [1] and 2 nM in test [2].

As for `O=C(O)C1CC1C(=O)NCCC[C@H](NS(=O)(=O)c1ccc(-c2ccc(Cl)cc2)cc1)C(=O)O` (some centres unmarked) [Example 64], the results for the IC50 in test [1] and in test [2] were 30 nM and 2 nM, respectively.

Turning to `O=C(NCCC[C@H](NS(=O)(=O)c1ccc(-c2ccc(Cl)cc2)cc1)C(=O)O)C1CCC1` [Example 66], the IC50 amounted to 10 nM in test [1] and 2 nM in test [2].

With `CC1CC1C(=O)NCCC[C@H](NS(=O)(=O)c1ccc(-c2ccc(Cl)cc2)cc1)C(=O)O` (some centres unmarked) [Example 69], the IC50 is 4 nM in test [1] and 2 nM in test [2].

On to `CC1(C)C(C(=O)NCCC[C@H](NS(=O)(=O)c2ccc(-c3ccc(Cl)cc3)cc2)C(=O)O)C1(C)C` [Example 70], for which the IC50 in test [1] worked out at 10 nM; in test [2], 3 nM.

Regarding `O=C(NCCC[C@H](NS(=O)(=O)c1ccc(-c2ccc(Cl)cc2)cc1)C(=O)O)c1ccc(F)cc1` [Example 71], the IC50 in test [1] is 10 nM; in test [2] it was 3 nM.

For `O=C(NCCC[C@H](NS(=O)(=O)c1ccc(-c2ccc(Cl)cc2)cc1)C(=O)O)c1ccc(C(F)(F)F)cc1` [Example 72], the IC50 in test [1] stood at 20 nM; in test [2], 6 nM.

`CC(=O)Oc1ccccc1C(=O)NCCC[C@H](NS(=O)(=O)c1ccc(-c2ccc(Cl)cc2)cc1)C(=O)O` [Example 73]: the values for the IC50 in test [1] and in test [2] were 4 nM and 2 nM, respectively.

Turning to `O=C(NCCC[C@H](NS(=O)(=O)c1ccc(-c2ccc(Cl)cc2)cc1)C(=O)O)c1ccccc1O` [Example 74], the IC50 in test [1] amounted to 10 nM; in test [2] it was 3 nM.

For `NC(=O)C1(C(=O)NCCC[C@H](NS(=O)(=O)c2ccc(-c3ccc(Cl)cc3)cc2)C(=O)O)CC1` [Example 75], the IC50 was determined as 20 nM in test [1] and 4 nM in test [2].

Take `O=C(O)c1ccccc1S(=O)(=O)NCCC[C@H](NS(=O)(=O)c1ccc(-c2ccc(Cl)cc2)cc1)C(=O)O` [Example 76]: the IC50 in test [1] and in test [2] was 40 nM in each case.

Take `C[C@@H]1NC(=O)N(CCC[C@H](NS(=O)(=O)c2ccc(-c3ccc(Cl)cc3)cc2)C(=O)O)C1=O` [Example 77]: the IC50 came out at 10 nM in test [1] and 2 nM in test [2].

For `O=C(CC[C@H](C(=O)O)c1ccccc1)NCCC[C@H](NS(=O)(=O)c1ccc(-c2ccc(Cl)cc2)cc1)C(=O)O` [Example 79], the IC50 amounted to 5 nM in test [1] and 2 nM in test [2].
